According to patent US20060293249A1, “Porphyrin derivatives” (PhotoBiotics Limited, priority 2002, published 2006):
Like-named read-outs stand apart in the source and are kept apart here. Each block holds one molecule with its values, some of them ahead of it.

Experiments:
[1] = Determination of singlet oxygen quantum yields (phosphorescence at 1270 nm following laser excitation, relative to reference standard); assay type: physicochemical
Procedure: Air equilibrated solutions of the sensitisers were optically matched at the laser excitation wavelength along with that of the reference standard whose singlet oxygen quantum yield is known. Singlet oxygen generation is detected by its phosphorescence at 1270 nm following laser excitation. At each laser intensity the recorded phosphorescence trace was obtained by signal averaging 10 single shots. A linear regression between the signal amplitude and the laser intensity is carried out with the aim of calculating the slope of the straight line and since the gradient is proportional to the singlet oxygen quantum yield, by comparison with the gradient obtained for the standard, the singlet oxygen quantum yield for the sample can calculated using: φ=φstandard×(slopesample/slopestandard)×(absorptionsample/absorptionstandard)
This is a comparative method where the value obtained for φ is relative to that of a known standard. The quality of the results obtained are heavily dependent on the quality of the standard, which should be freshly prepared before measurements.

[2] = compounds known in the art; cited from earlier work
[3] = Solubility remark in synthesis; assay type: physicochemical
[4] = in toluene; known standard value; cited from earlier work

Molecule: Zinc5-[5-(2′-(trimethylsilyl)ethyl-4-hydroxybenzoate)pentane]-10,15,20-tri-2-ethynylpyridine-porphyrin [Compound [11]]
singlet oxygen quantum yield [1]: around 0.81
singlet oxygen quantum yield ([1]; in toluene): 0.8109

Molecule: disulfonated aluminium phthalocyanine [AIPCS2]
singlet oxygen quantum yield [2]: 0.3

Molecule: C[Si](C)(C)CCOC(=O)c1ccc(OCCCCCc2c3nc(c(I)c4ccc([nH]4)c(I)c4nc(c(I)c5ccc2[nH]5)C=C4)C=C3)cc1 [[9], 5-[5-(2′-(trimethylsilyl)ethyl-4-hydroxybenzoate)pentane]-10,15,20-triiodo-porphyrin]
solubility [3]: limited solubility

solubility [3]: limited solubility
Molecule: 5-Nonane-10,15,20-triiodo-porphyrin [[18]]

Molecule: 5-Pentane-10,15,20-triiodo-porphyrin [[30]]
solubility [3]: limited solubility

Molecule: C=Cc1c(C)c2cc3nc(c4c5[n-]c(cc6nc(cc1[n-]2)C(C)=C6CC)c(C)c5C(=O)[C@@H]4C(=O)OC)[C@@H](CCC(=O)OC/C=C(\C)CCC[C@H](C)CCC[C@H](C)CCCC(C)C)[C@@H]3C.[Mg+2] [chlorophyll A]
singlet oxygen quantum yield of reference standard [4]: 0.6
